Experimental data as given in ChEMBL document CHEMBL1201862, “PubChem BioAssay data set” (2004).
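Each compound was tested at five concentrations against cells in 96-well plates for 48 hours. At the GI50, growth is halved.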 Active and inactive are the calls of the source. Rule as the data show it: active = GI50 up to about 1.1 µM and inactive = higher.

Tests used:
Assay in all cases: NCI anticancer screen, dose series, 48 h
A498 = tested on: A498
DU-145 = tested on: DU-145
HCT-15 = tested on: HCT-15
HL-60 = tested on: HL-60
KM12 = tested on: KM12
LOX IMVI = tested on: LOX IMVI
MCF7 = tested on: MCF7
NCI-H460 = tested on: NCI-H460
NCI/ADR-RES = tested on: NCI/ADR-RES
OVCAR-4 = tested on: OVCAR-4
SF-268 = tested on: SF-268
SNB-19 = tested on: SNB-19
SNB-75 = tested on: SNB-75
SR = tested on: SR
T47D = tested on: T47D
UACC-62 = tested on: UACC-62
UO-31 = tested on: UO-31
DMS-114 = tested on: DMS-114
SNB-78 = tested on: SNB-78
DMS-273 = tested on: DMS-273

Row | Structure (SMILES) | GI50 (A498) | GI50 (DU-145) | GI50 (HCT-15) | GI50 (HL-60) | GI50 (KM12) | GI50 (LOX IMVI) | GI50 (MCF7) | GI50 (NCI-H460) | GI50 (NCI/ADR-RES) | GI50 (OVCAR-4) | GI50 (SF-268) | GI50 (SNB-19) | GI50 (SNB-75) | GI50 (SR) | GI50 (T47D) | GI50 (UACC-62) | GI50 (UO-31) | GI50 (DMS-114) | GI50 (SNB-78) | GI50 (DMS-273)
1 | COc1ccc(C2C(C#N)=C(S)N(C3OC(CO)C(O)C(O)C3O)C(C)=C2C(C)=O)cc1 (centres undefined) | > 100 µM (inactive) | > 100 µM (inactive) | > 100 µM | 58.7 µM (inactive) | > 100 µM (inactive) | > 100 µM (inactive) | > 100 µM (inactive) | > 100 µM (inactive) | > 100 µM (inactive) | > 100 µM (inactive) | > 100 µM (inactive) | > 100 µM (inactive) | 42.7 µM (inactive) | 56.9 µM (inactive) | 30.5 µM (inactive) | 86.1 µM (inactive) | > 100 µM (inactive) |  |  | 
2 | CN(C)c1ccc(/C=C2\Cc3ccccc3C2=O)cc1Br | > 100 µM (inactive) |  | 35.7 µM |  | 43.2 µM (inactive) |  |  | 53.6 µM (inactive) |  | 41.8 µM (inactive) | 32.7 µM (inactive) | > 100 µM (inactive) | 38.5 µM (inactive) |  |  | 59.8 µM (inactive) | 36.6 µM (inactive) | 29.6 µM (inactive) | 59.8 µM (inactive) | 
3 | COC(=O)C12CCC(C(F)(F)C1=O)C2(C)C (centres undefined) | > 100 µM (inactive) | > 100 µM (inactive) | > 100 µM | > 100 µM (inactive) | > 100 µM (inactive) | > 100 µM (inactive) | > 100 µM (inactive) | > 100 µM (inactive) | > 100 µM (inactive) | > 100 µM (inactive) | > 100 µM (inactive) | > 100 µM (inactive) | > 100 µM (inactive) | > 100 µM (inactive) | > 100 µM (inactive) | > 100 µM (inactive) | > 100 µM (inactive) |  |  | 
4 | C=CC[C@H]1C[C@@]2(C)OC[C@H](C(C)C)N2C1=O | > 100 µM (inactive) |  | > 100 µM |  | > 100 µM (inactive) | > 100 µM (inactive) |  | > 100 µM (inactive) |  | > 100 µM (inactive) | > 100 µM (inactive) | > 100 µM (inactive) | > 100 µM (inactive) | > 100 µM (inactive) |  | > 100 µM (inactive) |  |  | > 100 µM (inactive) | > 100 µM (inactive)
5 | O=C(NCCCCCCCCCCCCNC(=O)Nc1cccc2ccccc12)Nc1cccc2ccccc12 | 16.9 µM (inactive) | 24.3 µM (inactive) | 18.4 µM | 18.2 µM (inactive) | 18.4 µM (inactive) | 18 µM (inactive) | 18.3 µM (inactive) | 15.5 µM (inactive) | 24.1 µM (inactive) | 11.2 µM (inactive) | 14.3 µM (inactive) | 15.1 µM (inactive) | 12.9 µM (inactive) | 16.7 µM (inactive) | 19.1 µM (inactive) | 12.6 µM (inactive) | 19.1 µM (inactive) |  |  | 
6 | CCCCN1C(=O)C2Cc3c([nH]c4ccccc34)C(c3cccc(O)c3)N2C1=O (centres undefined) | 18.5 µM (inactive) | 18.6 µM (inactive) | 18.7 µM | 22.8 µM (inactive) | 19.4 µM (inactive) | 18 µM (inactive) | 18.3 µM (inactive) | 20 µM (inactive) | 18.5 µM (inactive) | 18.7 µM (inactive) | 19.1 µM (inactive) | 19.1 µM (inactive) | 18.5 µM (inactive) | 20.5 µM (inactive) | 24.4 µM (inactive) | 17.7 µM (inactive) | 17.5 µM (inactive) |  |  | 
7 | C#CCSC(C=C=C)P(=O)(OC(C)C)OC(C)C (centres undefined) | 36.8 µM (inactive) | > 100 µM (inactive) | 30.5 µM | 38.1 µM (inactive) | > 100 µM (inactive) | > 100 µM (inactive) | 33.7 µM (inactive) | > 100 µM (inactive) | > 100 µM (inactive) | > 100 µM (inactive) | 90.8 µM (inactive) | > 100 µM (inactive) | > 100 µM (inactive) | 39.5 µM (inactive) | > 100 µM (inactive) | > 100 µM (inactive) | > 100 µM (inactive) |  |  | 
8 | O=C1Nc2c(Cl)cc(Cl)cc2/C1=N/Nc1ccccc1[N+](=O)[O-] | 55.7 µM (inactive) | > 100 µM (inactive) | 72.1 µM | 16.6 µM (inactive) | 88.9 µM (inactive) | 84.5 µM (inactive) | > 100 µM (inactive) | 54.5 µM (inactive) | 40.3 µM (inactive) | 29 µM (inactive) | 25.1 µM (inactive) | 23.7 µM (inactive) | 4.28 µM (inactive) | 5.45 µM (inactive) | 70.5 µM (inactive) | 22.2 µM (inactive) | > 100 µM (inactive) |  |  | 
9 | CCCCC/C=C\C=C1\C(=O)C=C[C@@H]1C/C=C\CCCC(=O)O | 11.7 µM (inactive) | 6.92 µM (inactive) | 5.24 µM | 2.41 µM (inactive) | 2.67 µM (inactive) | 2.27 µM (inactive) | 4.09 µM (inactive) | 6.04 µM (inactive) | 1.24 µM (inactive) | 1.53 µM (inactive) | 4.37 µM (inactive) | 4.51 µM (inactive) | 9.66 µM (inactive) | 1.96 µM (inactive) | 9.35 µM (inactive) | 3.94 µM (inactive) | 6.31 µM (inactive) |  |  | 
